# Results published in patent publication US12552783B2, “Modulators of proteolysis and associated methods of use” (Arvinas Operations, Inc., priority 2018, dated 2026).
# Target: KRas (Homo sapiens, UniProt P01116, G12C)
# Assay: KRas degradation in NCI-H2030 cells by Western blot, normalized to GAPDH (data of Table 14)
# Assay type: cell-based
# Parameters: host or cells: NCI-H2030
# Conditions: for Dmax: NCI-H2030
# How it was run: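 Readout: GAPDH-normalized KRas immunoblot signal, expressed as percent degradation versus 0.1% DMSO vehicle. Treatment: 0.3, 1, 3 μM after 24 h starvation; 24 h (VHL-based) or 72 h (others).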
SMILES,"Percent Degradation at Indicated Concentration (μM) (H2030, 0.3 μM)","Percent Degradation at Indicated Concentration (μM) (H2030, 1 μM)","Percent Degradation at Indicated Concentration (μM) (H2030, 3 μM)",Dmax,"Percent Degradation at Indicated Concentration (μM): 0.3 (H2030 cells, 0.3 μM)","Percent Degradation at Indicated Concentration (μM): 1 (H2030 cells, 1 μM)",Dmax (H2030 cells),other results
"C=CC(=O)N1CCN(c2nc(NCCC(=O)N(C)CCOCCOCCOCCOc3ccc(-c4csc([C@@H]5CCCN5C(=O)[C@@H](NC(=O)[C@H](C)NC)C5CCCCC5)n4)c4ccccc34)nc3c(F)c(-c4c(O)cccc4F)c(Cl)cc23)CC1 (atropisomer, axis not shown) [compound 278, 3-((4-(4-acryloylpiperazin-1-yl)-6-chloro-8-fluoro-7-((S)-2-fluoro-6-hydroxyphenyl)quinazolin-2-yl)amino)-N-(2-(2-(2-(2-((4-(2-((S)-1-((S)-2-cyclohexyl-2-((S)-2-(methylamino)propan-amido)acetyl)pyrrolidin-2-yl)thiazol-4-yl)naphthalen-1-yl)oxy)ethoxy)ethoxy)eth-oxy)ethyl)-N-methylpropanamide]",C (Percent Degradation: C ≤ 35),C (Percent Degradation: C ≤ 35),C (Percent Degradation: C ≤ 35),≤ 35%,–,–,–,–
"C=CC(=O)N1CCN(c2nc(OC3CCN(CCOCCOCCOCCOCC(=O)N[C@H](C(=O)N4C[C@H](O)C[C@H]4C(=O)N[C@@H](C)c4ccc(-c5scnc5C)cc4)C(C)(C)C)CC3)nc3c(F)c(-c4cc(O)cc5ccccc45)c(Cl)cc23)CC1 [compound 474, (2S,4R)-1-((2S)-17-(4-((4-(4-acryloylpiperazin-1-yl)-6-chloro-8-fluoro-7-(3-hydroxynaphthalen-1-yl)quinazolin-2-yl)oxy)piperidin-1-yl)-2-(tert-butyl)-4-oxo-6,9,12,15-tetraoxa-3-azaheptadecanoyl)-4-hydroxy-N-((S)-1-(4-(4-methylthiazol-5-yl)phenyl)ethyl)pyrrolidine-2 carboxamide]",C (Percent Degradation: C ≤ 35),C (Percent Degradation: C ≤ 35),C (Percent Degradation: C ≤ 35),≤ 35%,–,–,–,–
C=CC(=O)N1CCN(c2nc(O[C@H](C)CN3CCC(OCCOCCNc4cccc5c4C(=O)N(C4CCC(=O)NC4=O)C5=O)CC3)nc3c2CCN(c2cc(O)cc4ccccc24)C3)CC1 (stereo partly shown) [compound 412],–,–,–,–,–,–,–,"Percent Degradation at Indicated Concentration (μM) (H2030 cells, 0.3 μM): C (Percent Degradation: C ≤ 35); Percent Degradation at Indicated Concentration (μM) (H2030 cells, 1 μM): C (Percent Degradation: C ≤ 35); Percent Degradation at Indicated Concentration (μM) (H2030 cells, 3 μM): C (Percent Degradation: C ≤ 35)"
"CN(CCOCCOc1ccc2c(c1)CN(C1CCC(=O)NC1=O)C2=O)C(=O)CCNc1nc(N2CCN(C(N)=O)CC2)c2cc(Cl)c(-c3cc(O)cc4ccccc34)c(F)c2n1 (stereo not shown) [compound 37, 4-(6-chloro-2-((3-((2-(2-((2-(2,6-dioxopiperidin-3-yl)-1-oxoisoindolin-5-yl)oxy)ethoxy)ethyl)(methyl)amino)-3-oxopropyl)amino)-8-fluoro-7-(3-hydroxynaphthalen-1-yl)quinazolin-4-yl)piperazine-1-carboxamide]",C (Percent Degradation: C ≤ 35),C (Percent Degradation: C ≤ 35),C (Percent Degradation: C ≤ 35),≤ 35%,–,–,–,–
"C=CC(=O)N1CCN(c2nc(NCCC(=O)N(C)CCOCCOCC(=O)N[C@H](C(=O)N3C[C@H](O)C[C@H]3C(=O)N[C@@H](C)c3ccc(-c4scnc4C)cc3)C(C)(C)C)nc3c(F)c(-c4c(O)cccc4F)c(Cl)cc23)CC1 (atropisomer, axis not shown) [compound 207, (2S,4R)-1-((S)-15-(((S)-4-(4-acryloylpiperazin-1-yl)-6-chloro-8-fluoro-7-(2-fluoro-6-hydroxyphenyl)quinazolin-2-yl)amino)-2-(tert-butyl)-12-methyl-4,13-dioxo-6,9-dioxa-3,12-diazapentadecanoyl)-4-hydroxy-N-((S)-1-(4-(4-methylthiazol-5-yl)phenyl)ethyl)pyrrolidine-2-carboxamide]",–,–,C (Percent Degradation: C ≤ 35),–,–,–,–,–
"C=CC(=O)N1CCN(c2nc(NCCC(=O)N(C)CCOCCOCCOCCOCCOCC(=O)N[C@H](C(=O)N3C[C@H](O)C[C@H]3C(=O)N[C@@H](C)c3ccc(-c4scnc4C)cc3)C(C)(C)C)nc3c(F)c(-c4cc(O)cc5ccccc45)c(Cl)cc23)CC1 [compound 197, (2S,4R)-1-((2S)-24-((4-(4-acryloylpiperazin-1-yl)-6-chloro-8-fluoro-7-(3-hydroxynaphthalen-1-yl)quinazolin-2-yl)amino)-2-(tert-butyl)-21-methyl-4,22-dioxo-6,9,12,15,18-pentaoxa-3,21-diazatetracosanoyl)-4-hydroxy-N-((S)-1-(4-(4-methylthiazol-5-yl)phenyl)ethyl)pyrrolidine-2-carboxamide]",–,–,–,–,C (C ≤ 35),C (C ≤ 35),≤ 35%,"Percent Degradation at Indicated Concentration (μM): 3 (H2030 cells, 3 μM): C (C ≤ 35)"
"CCC(=O)N1CCN(c2nc(NCCC(=O)N(C)CCOCCOCCOCCOc3cc(-c4scnc4C)ccc3CNC(=O)[C@@H]3C[C@@H](O)CN3C(=O)[C@@H](c3cc(C)no3)C(C)C)nc3c(F)c(-c4cc(O)cc5ccccc45)c(Cl)cc23)CC1 [compound 334, (2S,4R)-N-(2-((15-((6-chloro-8-fluoro-7-(3-hydroxynaphthalen-1-yl)-4-(4-propionylpiperazin-1-yl)quinazolin-2-yl)amino)-12-methyl-13-oxo-3,6,9-trioxa-12-azapentadecyl)oxy)-4-(4-methylthiazol-5-yl)benzyl)-4-hydroxy-1-((R)-3-methyl-2-(3-methylisoxazol-5-yl)butanoyl)pyrrolidine-2-carboxamide]",–,–,–,–,C (C ≤ 35),C (C ≤ 35),≤ 35%,"Percent Degradation at Indicated Concentration (μM): 3 (H2030 cells, 3 μM): C (C ≤ 35)"
"CCC(=O)N1CCN(c2nc(NCCC(=O)N(C)CCOCCOCC(=O)N[C@H](C(=O)N3C[C@H](O)C[C@H]3C(=O)N[C@@H](C)c3ccc(-c4scnc4C)cc3)C(C)(C)C)nc3c(F)c(-c4cc(O)cc5ccccc45)c(Cl)cc23)CC1 [compound 187, (2S,4R)-1-((2S)-2-(tert-butyl)-15-((6-chloro-8-fluoro-7-(3-hydroxynaphthalen-1-yl)-4-(4-propionylpiperazin-1-yl)quinazolin-2-yl)amino)-12-methyl-4,13-dioxo-6,9-dioxa-3,12-diazapentadecanoyl)-4-hydroxy-N-((S)-1-(4-(4-methylthiazol-5-yl)phenyl)ethyl)pyrrolidine-2-carboxamide]",–,–,–,–,C (C ≤ 35),C (C ≤ 35),≤ 35%,"Percent Degradation at Indicated Concentration (μM): 3 (H2030 cells, 3 μM): C (C ≤ 35)"
CN(C)C(=O)CCNc1nc(N2CCN(C(=O)/C=C/CCOc3ccc4c(c3)C(=O)N(C3CCC(=O)NC3=O)C4=O)CC2)c2cc(Cl)c(-c3cc(O)cc4ccccc34)c(F)c2n1 (stereo not shown) [compound 468],C (Percent Degradation: C ≤ 35),C (Percent Degradation: C ≤ 35),C (Percent Degradation: C ≤ 35),≤ 35%,–,–,–,–
"C=CC(=O)N1CCN(c2nc(NCCC(=O)N(C)CCOCCOCCOc3ccc4c(c3)C(=O)N(C3CCC(=O)NC3=O)C4=O)nc3c(F)c(-c4cc(O)cc5ccccc45)c(Cl)cc23)CC1 (stereo not shown) [compound 61, 3-((4-(4-acryloylpiperazin-1-yl)-6-chloro-8-fluoro-7-(3-hydroxynaphthalen-1-yl)quinazolin-2-yl)amino)-N-(2-(2-(2-((2-(2,6-dioxopiperidin-3-yl)-1,3-dioxoisoindolin-5-yl)oxy)ethoxy)ethoxy)ethyl)-N-methylpropanamide]",–,–,–,–,C (C ≤ 35),C (C ≤ 35),≤ 35%,"Percent Degradation at Indicated Concentration (μM): 0.1 (H2030 cells, 0.1 μM): C (C ≤ 35)"
"Cc1ncsc1-c1ccc([C@H](C)NC(=O)[C@@H]2C[C@@H](O)CN2C(=O)[C@@H](NC(=O)COCCN(C)C(=O)CCNc2nc(N3CCN(C(=O)C(O)O)CC3)c3cc(Cl)c(-c4c(O)cccc4F)c(F)c3n2)C(C)(C)C)cc1 (atropisomer, axis not shown) [compound 234, (2S,4R)-1-((S)-2-(2-(2-(3-(((S)-6-chloro-4-(4-(2,2-dihydroxyacetyl)piperazin-1-yl)-8-fluoro-7-(2-fluoro-6-hydroxyphenyl)quinazolin-2-yl)amino)-N-methylpropanamido)ethoxy)acetamido)-3,3-dimethylbutanoyl)-4-hydroxy-N-((S)-1-(4-(4-methylthiazol-5-yl)phenyl)ethyl)pyrrolidine-2-carboxamide]",C (Percent Degradation: C ≤ 35),C (Percent Degradation: C ≤ 35),C (Percent Degradation: C ≤ 35),≤ 35%,–,–,–,–
"CN(CCOCCOCCOc1ccc2c(c1)C(=O)N(C1CCC(=O)NC1=O)C2=O)C(=O)CCNc1nc(N2CCN(C(=O)C(O)O)CC2)c2cc(Cl)c(-c3c(O)cccc3F)c(F)c2n1 [compound 152, 3-(((R)-6-chloro-4-(4-(2,2-dihydroxyacetyl)piperazin-1-yl)-8-fluoro-7-(2-fluoro-6-hydroxyphenyl)quinazolin-2-yl)amino)-N-(2-(2-(2-((2-(2,6-dioxopiperidin-3-yl)-1,3-dioxoisoindolin-5-yl)oxy)ethoxy)ethoxy)ethyl)-N-methylpropanamide]",–,–,–,–,–,–,–,"Percent Degradation at Indicated Concentration (μM) (H2030 cells, 0.3 μM): C (Percent Degradation: C ≤ 35); Percent Degradation at Indicated Concentration (μM) (H2030 cells, 1 μM): C (Percent Degradation: C ≤ 35); Percent Degradation at Indicated Concentration (μM) (H2030 cells, 3 μM): C (Percent Degradation: C ≤ 35)"
